{"source": "paper PMC9609824", "about": "(Molecules, 2022)", "key": {"[1]": {"test_system": "CYP2C9 and CYP2C19", "details": "metabolized by CYP2C9 and CYP2C19; cited from earlier work"}, "[2]": {"details": "freeze–thaw stability (−80 °C, thawed at room temperature three times), High QC 1250"}, "[3]": {"details": "freeze–thaw stability (−80 °C, thawed at room temperature three times), Low QC 75"}, "[4]": {"details": "short-term stability T0 (room temperature, immediately after preparation), High QC 1250"}, "[5]": {"details": "short-term stability T0 (room temperature, immediately after preparation), Low QC 75"}, "[6]": {"details": "short-term stability T4 (freezer −80 °C, 4 h), High QC 1250"}, "[7]": {"details": "short-term stability T4 (freezer −80 °C, 4 h), Low QC 75"}, "[8]": {"details": "short-term stability T24 (freezer −80 °C, 24 h), High QC 1250"}, "[9]": {"details": "short-term stability T24 (freezer −80 °C, 24 h), Low QC 75"}}, "note": "Like-named read-outs stand apart in the source and are kept apart here."}
{"smiles": "Cc1cnc(C(=O)NCCc2ccc(S(=O)(=O)NC(=O)N[C@H]3CCC[C@@H](O)C3)cc2)cn1", "note": "(relative stereo) [3-cis-hydroxyglipizide]", "values": [{"measurement": "Share of glipizide metabolized to the inactive metabolite", "setting": "[1]", "value": 15, "unit": "%"}]}
{"smiles": "Cc1cnc(C(=O)NCCc2ccc(S(=O)(=O)NC(=O)N[C@H]3CC[C@H](O)CC3)cc2)cn1", "note": "[4-trans-hydroxyglipizide]", "values": [{"measurement": "Share of glipizide metabolized to the inactive metabolite", "setting": "[1]", "value": 71, "unit": "%"}]}
{"smiles": "Cc1cnc(C(=O)NCCc2ccc(S(=O)(=O)NC(=O)NC3CCCCC3)cc2)cn1", "note": "[GLZ, glipizide]", "values": [{"measurement": "Accuracy (% Error)", "setting": "autosampler 24 h, High QC 1250", "value": "−1.32", "unit": "%"}, {"measurement": "Mean ± SD Measurable Conc.", "setting": "autosampler 24 h, High QC 1250", "value": "1233.47 ± 71.06", "unit": "ng/mL"}, {"measurement": "Accuracy (% Error)", "setting": "autosampler 24 h, Low QC 75", "value": 1.83, "unit": "%"}, {"measurement": "Mean ± SD Measurable Conc.", "setting": "autosampler 24 h, Low QC 75", "value": "76.37 ± 2.27", "unit": "ng/mL"}, {"measurement": "Accuracy (% Error)", "setting": "[2]", "value": "−1.59", "unit": "%"}, {"measurement": "Mean ± SD Measurable Conc.", "setting": "[2]", "value": "1230.17 ± 112.55", "unit": "ng/mL"}, {"measurement": "Accuracy (% Error)", "setting": "[3]", "value": 4.86, "unit": "%"}, {"measurement": "Mean ± SD Measurable Conc.", "setting": "[3]", "value": "78.65 ± 4.84", "unit": "ng/mL"}, {"measurement": "Accuracy (% Error)", "setting": "[4]", "value": "−0.82", "unit": "%"}, {"measurement": "Mean ± SD Measurable Conc.", "setting": "[4]", "value": "1239.79 ± 68.22", "unit": "ng/mL"}, {"measurement": "Accuracy (% Error)", "setting": "[5]", "value": 8.13, "unit": "%"}, {"measurement": "Mean ± SD Measurable Conc.", "setting": "[5]", "value": "81.10 ± 2.06", "unit": "ng/mL"}, {"measurement": "Accuracy (% Error)", "setting": "[6]", "value": 2.82, "unit": "%"}, {"measurement": "Mean ± SD Measurable Conc.", "setting": "[6]", "value": "1285.25 ± 10.84", "unit": "ng/mL"}, {"measurement": "Accuracy (% Error)", "setting": "[7]", "value": "−6.68", "unit": "%"}, {"measurement": "Mean ± SD Measurable Conc.", "setting": "[7]", "value": "69.99 ± 1.61", "unit": "ng/mL"}, {"measurement": "Accuracy (% Error)", "setting": "[8]", "value": 4.93, "unit": "%"}, {"measurement": "Mean ± SD Measurable Conc.", "setting": "[8]", "value": "1311.63 ± 30.52", "unit": "ng/mL"}, {"measurement": "Accuracy (% Error)", "setting": "[9]", "value": "−6.27", "unit": "%"}, {"measurement": "Mean ± SD Measurable Conc.", "setting": "[9]", "value": "70.30 ± 2.90", "unit": "ng/mL"}]}
